The values below come from US6630496B1, “Inhibitors of phospholipase enzymes” (Genetics Institute LLC, priority 1996, dated 2003).

The target of assay [1] is T1, cPLA2 (Homo sapiens, UniProt P47712).
T1 sequence (P47712 1-749): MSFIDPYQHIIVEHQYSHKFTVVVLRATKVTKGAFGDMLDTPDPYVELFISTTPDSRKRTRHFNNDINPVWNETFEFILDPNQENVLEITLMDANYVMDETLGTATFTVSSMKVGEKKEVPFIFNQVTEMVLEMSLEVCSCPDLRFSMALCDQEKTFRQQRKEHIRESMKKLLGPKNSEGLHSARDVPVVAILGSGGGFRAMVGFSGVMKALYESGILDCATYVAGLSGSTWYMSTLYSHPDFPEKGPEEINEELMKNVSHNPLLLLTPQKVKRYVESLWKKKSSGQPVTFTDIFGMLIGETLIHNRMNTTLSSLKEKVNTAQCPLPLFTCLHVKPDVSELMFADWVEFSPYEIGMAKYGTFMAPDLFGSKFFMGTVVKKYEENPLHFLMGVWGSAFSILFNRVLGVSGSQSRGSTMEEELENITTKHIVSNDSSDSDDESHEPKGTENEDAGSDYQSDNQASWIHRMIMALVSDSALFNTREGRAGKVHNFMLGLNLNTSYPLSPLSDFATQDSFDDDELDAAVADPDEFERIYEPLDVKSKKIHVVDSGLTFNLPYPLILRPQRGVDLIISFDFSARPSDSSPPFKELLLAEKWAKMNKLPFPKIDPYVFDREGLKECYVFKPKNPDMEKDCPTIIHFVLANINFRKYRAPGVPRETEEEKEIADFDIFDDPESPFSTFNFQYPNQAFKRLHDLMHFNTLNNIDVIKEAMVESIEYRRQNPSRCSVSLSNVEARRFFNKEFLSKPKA
Put plainly: Activity assay of Example 136 (Table VIII; sub-assay not stated). The following applies: for IC50: concentration paired with 50 percent inhibition, read-out: CONCENTRATION (micromolar) @ PERCENT INHIBITION 50. It is filed as biochemical. Here is the method: Activity data for the compounds of Examples 88-135 are reported in Table VIII (assay described in Example 136).
1-palmitoyl-2-V^14C] arachidonyl phosphotidylcholine (58 mCi/mmol) (final concentration 6 μM) and 1,2-dioleyolglycerol (final concentration 3 μM) were mixed and dried under a stream of nitrogen. To the lipids was added 50 mM Hepes pH 7.5 (2×final concentration of lipids) and the suspension was sonicated for 3 min. at 4° C. To the suspension was added 50 mM Hepes pH 7.5, 300 mM NaCl, 2 mM DTT, 2 mM CaCl2 and 2 mg/ml bovine serum albumin (BSA) (Sigma A7511) (1.2×final concentration of lipids). A typical assay consisted of the lipid mixture (85 μl) to which was added consecutively, the inhibitor (5 μl in DMSO) and cPLA2, 10 ng for an automated system or 1 ng for a manual assay, in 10 μl of the BSA buffer. This assay was conducted by either the manual assay or automated assay protocol described below.
1-[^14C]-palmitoyl-2-hydroxyphosphotidyl-choline (57 mCi/mmol) (final concentration 4.4 μM) was dried under a stream of nitrogen. The lipid was resuspended by vortexing 80 mM Hepes pH 7.5, 1 mM EDTA (1.2×final concentration). A typical assay consisted of lipid suspension (85 μl) to which was added consecutively the inhibitor (5 μl in DMSO) and cPLA2, 200 ng in 80 mM Hepes pH 7.5, 2 mM DTT and […]. This assay was conducted by either the manual assay or automated assay protocol described below.
RBL-2H3 cells were routinely cultured as 37° C. in a 5% CO2 atmosphere in minimal essential medium containing nonessential amino acids and 12% fetal calf serum. The day before the experiment, cells were seeded into spinner flasks at 3×10^5 cells/ml and 100 ng/ml DNP specific-IgE was added. After 20 hrs, the cells were harvested by centrifugation and washed once in serum-free minimal essential media, and resuspended to 2×10^6 cells/ml in serum free media. The cells were then preincubated with either inhibitor in DMSO (1% v/v) or DMSO (1% v/v) for 15 min at 37° C. followed by stimulation with DNP-BSA (300 ng/ml). After 6 min, the cells were removed by centrifugation, and the supernatant was assayed for PGD2 content in accordance with known methods.
(§1) 7-hydroxycoumarinyl 6-heptenoate was used as a monomeric substrate for cPLA2 as reported previously (Huang, Z. et al., 1994, Analytical Biochemistry 222, 110-115). Inhibitors were mixed with 200 μL assay buffer (80 mM Hepes, pH 7.5, 1 mM EDTA) containing 60 μM 7-hydroxycoumarinyl 6-heptenoate. The reaction was initiated by adding 4 μg cPLA2 in 50 μL assay buffer. Hydrolysis of the 7-hydroxycoumarinyl 6-heptenoate ester was monitored in a fluorometer by exciting at 360 nm and monitoring emission at 460 nm. Enzyme activity is proportional to the increasein emission at 460 nm per minute. In the presence of a cPLA2 inhibitor, the rate of increase is less.

The target in assay [2] is T1, cPLA2. Put plainly: Coumarine assay (7-hydroxycoumarinyl 6-heptenoate hydrolysis). It is filed as biochemical. The following applies: 60 μM 7-hydroxycoumarinyl 6-heptenoate; read-out: IC50 (μM) Coumarine. Here is the method:
as §1

Assay [3] has as its system carrageenan-induced footpad edema. Put plainly: Rat carrageenan-induced footpad edema test. It counts as in vivo. The following applies: iv, 1 mg/ml, 5 ml/kg, male Sprague Dawley rats, footpad volume 3 hours after carrageenan, read-out: % inhibition of rat carrageenan-induced footpad edema. Here is the method: Compounds of the present invention were also tested for in vivo activity in a rat paw edema test according to the procedure described in Example 89.
Rat Carrageenan-Induced Footpad Edema Test
Each compound was suspended in 0.3 ml absolute ethanol, 0.1 ml Tween-80 and 2.0 ml Dulbecco's PBS (without calcium or magnesium). To this mixture, 0.1 ml 1N NaOH was added. After solution was complete, additional amounts of PBS were added to adjust the concentration to 1 mg/ml. All comounds remained in solution. Compounds were administered i.v. in a volumne of 5 ml/kg to male Sprague Dawley rats at the same time that edema was induced by injection of 0.05 ml of 1% Type IV carrageenan into the hind footpad. Footpad volume was measured before dosing with compound and 3 hours after dosing with carageenan.

Assay [4] has as its target T1, cPLA2. Kind of assay: Soluble substrate assay (LysoPC). It is filed as biochemical. The note with it: NA = inhibitory activity not detected; read-out: IC50 (μM) Lyso PC. Here is the method:
(b) Soluble Substrate Assay (LysoPC)
The lipid was resuspended by vortexing 80 mM Hepes pH 7.5, 1 mM EDTA (1.2×final concentration). A typical assay consisted of lipid suspension (85 μl) to which was added consecutively the inhibitor (5 μl in DMSO) and cPLA2, 200 ng in 80 mM Hepes pH 7.5, 2 mM DTT and […]. This assay was conducted by either the manual assay or automated assay protocol described below.

“And” between values parts separate entries of the source, which are not always exact repeats. Equal entries are not always repeated.

On to `O=C(O)c1cc2cc(-c3cc4ccccc4o3)ccc2n1Cc1ccccc1` [Example 110, 5-(1-Benzofuran-2-yl)-1-benzyl-1H-indole-2-carboxylic Acid], for which, at cPLA2 [1], the IC50 turned out to be 50 µM.

As to `O=C(O)c1cc2cc(-c3ccccc3)ccc2n1Cc1ccccc1` [Example 113, 1-Benzyl-5-phenyl-1H-indole-2-carboxylic Acid], the IC50 at cPLA2 [1] came to 170 µM.

Regarding `O=C(O)c1ccc(CN2C(=O)/C(=C\c3cc4cc(OCc5ccccc5)ccc4n3Cc3ccc(C(F)(F)F)cc3C(F)(F)F)SC2=S)cc1` [Example 107, 4-{[5-((E)-{5-(Benzyloxy)-1-[2,4-bis(trifluoromethyl)benzyl]-1H-indol-2-yl}methylidene)-4-oxo-2-thioxo-1,3-thiazolan-3-yl]methyl}benzoic Acid], the IC50 at cPLA2 [1] is 3.8 µM.

On to `O=C(O)/C=C/c1cc2cc(OCc3ccccc3)ccc2n1Cc1ccc(C(F)(F)F)cc1C(F)(F)F` [Example 125], for which the IC50 at cPLA2 [1] was 23 µM.

`COc1cccc(-c2ccc3c(c2)cc(C(=O)O)n3Cc2ccccc2)c1` [Example 112, 1-Benzyl-5-(3-methoxyphenyl)-1H-indole-2-carboxylic Acid]: the “PERCENT INHIBITION @ CONCENTRATION 25 micromolar” value on cPLA2 [1] (25 micromolar) is reported as 32%. Also, at cPLA2 [1], the “PERCENT INHIBITION @ CONCENTRATION 50 micromolar” value came to 46%.

Take `CC(=O)c1c(CSc2ccccc2C(=O)O)n(Cc2ccc(C(=O)c3nc4ccccc4s3)cc2)c2ccc(OCc3ccccc3)cc12` [Example 134]: at cPLA2 [1], the IC50 was 3.5 µM.

As for `O=C1NC(=O)/C(=C\c2cc3cc(OCc4ccccc4)ccc3n2Cc2ccc(Cc3ccccc3)cc2)S1` [Example 93, 5-{(E)-[1-(4-Benzylbenzyl)-5-(benzyloxy)-1H-indol-2-yl]methylidene}-1,3-thiazolane-2,4-dione], the “PERCENT INHIBITION @ CONCENTRATION 12.5 micromolar” value at cPLA2 [1] (12.5 micromolar) was 55%. The IC50 at cPLA2 [1] amounted to 12.5 µM.

Take `CC(=O)c1c(CSCC(=O)O)n(Cc2ccc(C(=O)c3nc4ccccc4s3)cc2)c2ccc(OCc3ccccc3)cc12` [Example 133]: the IC50 at cPLA2 [1] turned out to be 8.5 µM.

Turning to `O=C(O)c1ccc(CN2C(=O)S/C(=C/c3cc4cc(OCc5ccccc5)ccc4n3Cc3ccc(Cl)cc3)C2=O)cc1` [Example 97, 4-[(5-{(E)-[5-(Benzyloxy)-1-(4-chlorobenzyl)-1H-indol-2yl]methylidene}2,4-dioxo-1,3-thiazolan-3-yl)methyl]benzoic Acid], on cPLA2 [1], the IC50 worked out at 4.5 µM.

In the case of `O=C(O)c1ccccc1SCC1Cc2cc(OCc3ccccc3)ccc2N1Cc1ccc2ccccc2c1` (centres unmarked) [Example 76], the IC50 at cPLA2 [2] was 4.5 µM. In assay [3], the inhibition in vivo at 1000 µg/mL, 5 mg/kg is 8.2%.

With `CC(=O)c1c(COc2ccc(C(=O)O)cc2)n(Cc2ccc(C(=O)c3nc4ccccc4s3)cc2)c2ccc(OCc3ccccc3)cc12` [Example 135], the IC50 at cPLA2 [1] was determined as 9 µM.

Turning to `O=C(O)CN1C(=O)S/C(=C/c2cc3cc(OCc4ccccc4)ccc3n2Cc2ccc(COc3cc(C(F)(F)F)cc(C(F)(F)F)c3)cc2)C1=O` [Example 96, 2-(5-{(E)-[5-(Benzyloxy)-1-(4-{[3,5-bis(trifluoromethyl)phenoxy]methyl}benzyl)-1H-indol-2-yl]methylidene}-2,4-dioxo-1,3-thiazolan-3-yl)acetic Acid], on cPLA2 [1], the IC50 was determined as 5 µM.

With `O=C(O)c1cc(NC(=O)c2cc3cc(OCc4ccccc4)ccc3n2Cc2ccccc2)cc(C(=O)O)c1` [Example 123, 5-({[1-Benzyl-5-(benzyloxy)-1H-indol-2-yl]carbonyl}amino)isophthalic Acid], at cPLA2 [1], the “PERCENT INHIBITION @ CONCENTRATION 50 micromolar” value was 31% and 25%.

On to `O=C1NC(=S)S/C1=C/c1cc2cc(OCc3ccccc3)ccc2n1Cc1ccc(C(F)(F)F)cc1C(F)(F)F` [Example 101, 5-((E)-{5-(Benzyloxy)-1-[2,4-bis(trifluoromethyl)benzyl]-1H-indol-2-yl}methylidene)-2-thioxo-1,3-thiazolan-4-one], for which the IC50 on cPLA2 [1] was determined as 10 µM.

On to `COc1ccc(C(=O)O)cc1NC(=O)CSCC1Cc2cc(OCc3ccccc3)ccc2N1C(=O)COc1ccc2ccccc2c1` (centres unmarked) [Example 59, 3-(2-(5-Benzyloxy-1-(2-naphthoxyaceiyl)indolinyl)methylthioacetamido)4-methoxybenzoic Acid], for which the IC50 is 8.7 µM at cPLA2 [4] and greater than 30 µM at cPLA2 [2].

With `O=C(O)c1ccc(CN2C(=O)S/C(=C/c3cc4cc(OCc5ccccc5)ccc4n3Cc3ccc(COc4cc(C(F)(F)F)cc(C(F)(F)F)c4)cc3)C2=O)cc1` [Example 88, 4-[(5-{(E)[5-(Benzyloxy)-1-(4-{[3,5-bis(trifluoromethyl)phenoxyl]methyl}benzyl)-1H-indol-2-yl]methylidene}-2,4-dioxo-1,3-thiazolan-3-yl)methyl]benzoic Acid], on cPLA2 [1], the IC50 is 3 µM.

Regarding “5-(2-(5-(3,5-Dibromo)benzyloxy-1-(3,5-bis(trifluoromethyl)phenoxyacetyl)indolinyl)methylthioacetamido)benzene-1,3-dicarboxylic Acid [Example 45]”, the IC50 at cPLA2 [4] amounted to 0.37 µM; on cPLA2 [2], 5 µM.

On to `O=C(O)c1ccc(CN2c3ccc(OCc4ccccc4)cc3CC2COCc2ccc3ccccc3c2)cc1` (centres unmarked) [Example 81], for which the figures for the IC50 at cPLA2 [4] and on cPLA2 [2] were 3.2 µM and 15 µM, respectively.

For `O=C(O)c1cc2cc(-c3ccc(F)cc3)ccc2n1Cc1ccccc1` [Example 111, 1-Benzyl-5-(4-fluorophenyl)-1H-indole-2-carboxylic Acid], the IC50 at cPLA2 [1] is 13 µM.

As to “5-(2-(-5-Benzyloxy-1-(3,5-bis(trifluoromethyl)phenoxyacetyl)indolinyl)methylthioacetamido)benzene-1,3-dicarboxylic Acid [Example 38]”, the IC50 was 6.9 µM on cPLA2 [4] and greater than 50 µM at cPLA2 [2].

Take “5-(2-(-5-Hydroxy-1-(3,5-bis(trifluoromethyl)phenoxyacetyl)indolinyl)methylthioacetamido)benzene-1,3-dicarboxylic Acid [Example 44]”: the IC50 on cPLA2 [4] is 27 µM; on cPLA2 [2] it was greater than 30 µM.
